Key:
[1] = system: GPR84-Gαi2 fusion protein; test: [35S]GTPγS binding, membranes expressing GPR84-Gαi2 fusion protein; assay type: biochemical, human; conditions: for direct agonism of GPR84, [35S]GTPγS binding: DIM analogs; for allosteric effect on concentration-response curves of orthosteric agonists incl. compound-1: increasing concentrations of analog
Description: The only previous study[3] designed to explore the mode of binding of ligands to GPR84 employed a fusion protein[31],[32] in which the G protein Gαi1 was linked in-frame to the C-terminal tail of GPR84. […] These studies indicate that following pertussis toxin treatment of cells expressing the GPR84-Cys^352Ile Gαi2 fusion protein all agonist-induced binding of [^35S]GTPγS reflects incorporation of nucleotide into the receptor-linked G protein α subunit.
(§1) Membranes were generated from Flp-In T-REx HEK293 cells treated with 100 ng/mL doxycycline to induce expression of the receptor construct of interest. Cells were washed with ice-cold phosphate-buffered saline, removed from dishes by scraping and centrifuged at 3000 rpm for 5 min at 4 °C. Pellets were resuspended in TE buffer (10 mM Tris-HCl, 0.1 mM EDTA; pH 7.5) containing a protease inhibitor mixture (Roche Applied Science, West Sussex, UK) and homogenized with a 5 ml hand-held homogenizer. This material was centrifuged at 1500 rpm for 5 min at 4 °C and the supernatant was further centrifuged at 50000 rpm for 45 min at 4 °C. The resulting pellet was resuspended in TE buffer and protein content was assessed using a BCA protein assay kit (Pierce, Fisher Scientific, Loughborough, UK).
(§2) Initially, 5 μg of generated membrane protein was pre-incubated for 15 min at 25 °C in assay buffer (20 mM HEPES, 5 mM MgCl2; 160 mM NaCl; 1 μM GDP; 0.05% fatty acid-free bovine serum albumin; pH 7.5) containing the indicated ligand concentrations. […] The reaction was then initiated with addition of [^35S]GTPγS (50 nCi per tube), and the reaction was terminated after 45 minutes incubation at 30 °C by rapid filtration through GF/C glass filters using a 24-well Brandel cell harvester (Alpha Biotech, Glasgow, UK). Unbound radioligand was removed from filters by three washes with ice-cold phosphate buffered saline (pH 7.4) and filters were dried for 2–3 h at room temperature. Dried filters were added to 3 mL of Ultima Gold^TM XR (PerkinElmer Life Sciences, Beaconsfield, UK) and [^35S]GTPγS binding was determined by liquid scintillation spectrometry.

[2] = target: T1, Arg^172Ala GPR84-Cys^352Ile Gαi2 fusion protein (Homo sapiens, UniProt Q9NQS5, R172A); test: [35S]GTPγS binding, Arg172Ala mutant fusion protein; assay type: biochemical
T1 construct: Cys352Ile Gαi2 (fusion partner, same polypeptide); expressed in transfected cells; host or cells: membranes of Flp-In T-REx 293 cells, doxycycline-induced
T1 sequence (Q9NQS5 2-396 R172A): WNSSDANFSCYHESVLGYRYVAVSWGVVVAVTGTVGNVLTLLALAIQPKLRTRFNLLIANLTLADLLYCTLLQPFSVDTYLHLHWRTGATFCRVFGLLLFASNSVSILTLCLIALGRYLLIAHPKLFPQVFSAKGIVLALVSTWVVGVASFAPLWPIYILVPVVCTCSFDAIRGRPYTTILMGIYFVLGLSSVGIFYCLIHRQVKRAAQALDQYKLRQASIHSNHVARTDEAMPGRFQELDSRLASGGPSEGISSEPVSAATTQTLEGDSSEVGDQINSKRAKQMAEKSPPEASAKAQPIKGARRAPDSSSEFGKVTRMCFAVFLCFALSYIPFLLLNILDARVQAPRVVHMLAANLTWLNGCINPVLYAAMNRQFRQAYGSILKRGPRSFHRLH
Description: To try to identify how a MCFA might interact with GPR84 we turned to homology modelling studies. Although GPR84 is not closely related to the other GPCRs that respond to either short chain (FFA2, FFA3) or long chain (FFA1, FFA4) fatty acids[8],[9], in each of the other cases the carboxylate of the fatty acid is co-ordinated by one or more arginine residues located at or near the extracellular surface[12]–[14]. […] As we have highlighted recently[9] GPR84 and the β2-adrenoceptor are only distantly related whilst, of the currently available atomic level GPCR structures, the orexin OX1 receptor[34] has highest overall sequence identity (31%) with GPR84. We, therefore, generated and employed a new homology model of GPR84 based on the transmembrane domain architecture of the OX1 receptor (Fig. 6). However, because ECL2 of GPR84 is very similar in sequence to that of rhodopsin (Fig. 6a), with 43% residue identity over this region, we incorporated this knowledge into the modelling process. In the resulting hybrid model (Fig. 6a) Arg^172 within ECL2 is pointing into the potential binding cavity within the helical bundle. This was not the case when Nikaido et al.,[3] employed the β2-adrenoceptor-based model, probably because the ECL2 sequences of the β2-adrenoceptor and GPR84 have no relatedness. […] To assess this we mutated Arg^172 to Ala within the setting of the GPR84-Cys^352Ile Gαi2 fusion protein. […] Equivalent results were obtained in studies in which the Arg^172Ala mutation was introduced into the FLAG-hGPR84-eYFP construct (Fig. 7b).
FLAG-humanGPR84-Gαi2 fusion proteins were constructed by replacing eYFP within the FLAG-humanGPR84-eYFP-pcDNA5/FRT/TO construct with sequence corresponding to Gαi2 or Cys^352Ile Gαi2 using NotI and XhoI restriction enzymes. Site-directed mutagenesis to generate point mutants of GPR84 was performed according to the QuikChange method (Stratagene, Cheshire, UK). The identity of all constructs was verified by nucleotide sequencing.
as §2

[3] = target: GPR84-Cys^352Ile Gαi2 fusion protein (Homo sapiens, UniProt Q9NQS5); test: [35S]GTPγS binding, membranes expressing pertussis toxin-resistant GPR84-Cys352Ile Gαi2 fusion; operational model of allosteric modulation; assay type: biochemical; conditions: for measured potency compared between GPR84-Gαi2 and GPR84-Cys352Ile Gαi2 fusion constructs: [35S]GTPγS binding
Chain of GPR84-Cys^352Ile Gαi2 fusion protein (Q9NQS5 whole entry, the tested form may be a part): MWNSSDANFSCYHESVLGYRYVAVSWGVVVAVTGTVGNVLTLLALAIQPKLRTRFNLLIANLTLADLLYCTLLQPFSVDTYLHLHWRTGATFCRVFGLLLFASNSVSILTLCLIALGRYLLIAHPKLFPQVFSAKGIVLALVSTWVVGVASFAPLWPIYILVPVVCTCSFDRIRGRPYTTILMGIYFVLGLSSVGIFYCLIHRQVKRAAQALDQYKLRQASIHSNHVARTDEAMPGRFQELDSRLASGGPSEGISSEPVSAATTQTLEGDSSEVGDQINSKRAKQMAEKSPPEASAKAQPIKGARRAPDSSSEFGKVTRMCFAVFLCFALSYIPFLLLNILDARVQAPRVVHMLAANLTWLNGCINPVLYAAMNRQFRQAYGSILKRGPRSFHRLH
Chain of GPR84-Cys^352Ile Gαi2 fusion protein (P04899 2-355 C352I, further chain): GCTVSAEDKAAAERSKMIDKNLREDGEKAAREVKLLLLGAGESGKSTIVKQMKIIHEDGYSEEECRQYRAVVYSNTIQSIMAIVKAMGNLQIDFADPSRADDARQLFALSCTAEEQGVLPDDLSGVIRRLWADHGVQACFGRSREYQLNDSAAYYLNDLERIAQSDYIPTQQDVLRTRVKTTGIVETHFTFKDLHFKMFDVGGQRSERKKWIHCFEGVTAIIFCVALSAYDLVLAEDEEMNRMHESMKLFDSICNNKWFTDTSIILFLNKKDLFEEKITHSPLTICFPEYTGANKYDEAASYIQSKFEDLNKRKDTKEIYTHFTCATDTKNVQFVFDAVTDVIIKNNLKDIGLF
Experimental: The only previous study[3] designed to explore the mode of binding of ligands to GPR84 employed a fusion protein[31],[32] in which the G protein Gαi1 was linked in-frame to the C-terminal tail of GPR84.
as §1
(§3) The reaction was then initiated with addition of [^35S]GTPγS (50 nCi per tube), and the reaction was terminated after 45 minutes incubation at 30 °C by rapid filtration through GF/C glass filters using a 24-well Brandel cell harvester (Alpha Biotech, Glasgow, UK). […] Dried filters were added to 3 mL of Ultima Gold^TM XR (PerkinElmer Life Sciences, Beaconsfield, UK) and [^35S]GTPγS binding was determined by liquid scintillation spectrometry.
To quantify the extent of allosteric interaction between pairs of ligands, data were analysed using an operational model of allosteric modulation described previously. The general version of this model can be depicted by the following equation: E=Em(τA[A](KB+αβ[B])+τB[B]KA)^n/([A]KB+KAKB+[B]KA+α[A][B])^n+(τA[A](KB+αβ[B])+τB[B]KA)^n where, E is the pharmacological effect, [A] and [B] are the orthosteric and allosteric compound concentrations at equilibrium, respectively; KA and KB are the equilibrium dissociation constants of the orthosteric and allosteric ligands respectively, denoting the binding affinities of the two ligands to the receptor; α is the binding cooperativity factor denoting the magnitude and direction of the allosteric effect on binding affinity of the orthosteric agonist to the receptor, β is the activation cooperativity factor representing the measure of the allosteric effect on orthosteric efficacy. τA and τB represent the intrinsic activity of the orthosteric and allosteric ligand, respectively. Em is the maximal possible system response and n denotes the slope factor of the transducer function. In case of global fitting of the allosterism data through this equation, Em and n values were always constrained and other parameters (KA, KB,τA, τB, α, β) were estimated.

[4] = target: T2, FLAG-Arg^174Ala hGPR84-eYFP (Homo sapiens, UniProt Q9NQS5, R174A); test: [35S]GTPγS binding, Arg174Ala mutant receptor; assay type: biochemical
T2 construct: expressed in transfected cells; host or cells: membranes of Flp-In T-REx 293 cells, doxycycline-induced
T2 sequence (Q9NQS5 whole entry R174A): as the sequence (Q9NQS5 whole entry, the tested form may be a part) above, with R174A counted along it

[5] = target: T3, Arg^172Lys GPR84-Cys^352Ile Gαi2 fusion protein (Homo sapiens, UniProt Q9NQS5, R172K); test: [35S]GTPγS binding, Arg172Lys mutant fusion protein; assay type: biochemical
T3 construct: Cys352Ile Gαi2 (fusion partner, same polypeptide); expressed in transfected cells; host or cells: membranes of Flp-In T-REx 293 cells, doxycycline-induced
T3 sequence (Q9NQS5 2-396 R172K): as the sequence (Q9NQS5 2-396 R172A) above, with A171K counted along it

[6] = target: T4, human GPR84 (FLAG-hGPR84-eYFP) (Homo sapiens, UniProt Q9NQS5); test: [35S]GTPγS binding, membranes of cells expressing FLAG-hGPR84-eYFP; assay type: biochemical
T4 construct: expressed in transfected cells
T4 sequence (Q9NQS5 whole entry): as the sequence (Q9NQS5 whole entry, the tested form may be a part) above
Experimental: as §1, §3
All data are presented as means ± SEM of at least three independent experiments. Data analysis and curve fitting was carried out using the GraphPad Prism software package version 5.0b (GraphPad, San Diego). […] In case of inhibition experiments with antagonists an equivalent analysis was followed to fit an inverse sigmoidal curve. To perform the statistical analysis of curve parameters, data from multiple experiments were fitted independently and resulting curve fit values were analysed with indicated tests. For radioligand binding data, saturation binding curves were generated by fitting the specific binding, which was obtained by subtracting non-specific from total binding, to a one site specific binding model that allows calculation of Kd values for the radioligand at wild type and mutant receptors. To determine affinity of unlabelled ligands, data obtained in displacement assays were fit to an inverse three parameter sigmoidal curve constrained by radioligand affinity and concentration to allow for Ki calculation.

[7] = agonist 3a, modulator compound-1
[8] = agonist compound-1, modulator 3a

For O=[N+]([O-])c1ccc2[nH]cc(Cc3c[nH]c4ccc([N+](=O)[O-])cc34)c2c1 [6a], which “direct agonism of GPR84, [35S]GTPγS binding” value (“direct agonism of GPR84” below) [1] is on record?
The value was “direct agonism”.

With CCCCCCCCCCCC1=C(O)C(=O)C=C(O)C1=O [embelin, 2,5-dihydroxy-3-undecyl-2,5-cyclohexadiene-1,4-dione] as the compound, how does the “agonist response at Arg172Ala mutant” value [2] read?
The value was “no response”.

What about the “measured potency compared between GPR84-Gαi2 and GPR84-Cys352Ile Gαi2 fusion constructs” value [3] of the same compound?
Its value is “indistinguishable”.

And the logα ([3]; agonist embelin, modulator DIM)?
Its logα is 1.22 ± 0.05.

What about the logβ ([3]; agonist embelin, modulator DIM) of the same compound?
The logβ was 0.8 ± 0.02.

What about the “effect of Arg174Ala mutation on agonist function or potency” value [4] of the same compound?
The value was “did not affect function or potency”.

What about the “agonist response at Arg172Lys mutant” value [5] of the same compound?
Its value is “eliminated response”.

With COc1ccc2[nH]cc(C(c3ccc(C)cc3)c3c[nH]c4ccc(OC)cc34)c2c1 [3b] as the compound, how does the “direct agonism of GPR84” value [1] read?
The value was “inactive”.

Which “ability to limit [35S]GTPγS binding induced by EC80 concentrations of C10 (50 μM), embelin (3 μM) and DIM (5 μM)” value [6] does the source give for “2-((S)-1-[1,4]dioxan-2-ylmethoxy)-9-(tetrahydro-pyran-4-yl-methoxymethyl)-6,7-dihydro-pyrimido[6,1-a]isoquinolin-4-one [Compound 161]” here?
Its value is “in a concentration-dependent fashion”.

How did the logα [3, 7] turn out when COc1ccc2[nH]cc(Cc3c[nH]c4ccc(OC)cc34)c2c1 [3a] was run?
The logα was 1.43 ± 0.08.

And the logβ [3, 7]?
The logβ was 1.2 ± 0.06.

What about the Kd ([3]; pKA (estimated for the agonist), agonist 3a, modulator compound-1) of the same compound?
Its Kd is 14.8 µM.

And the Kb ([3]; pKB (estimated for the modulator), modulator 3a, agonist compound-1)?
The Kb was 10 µM.

What about the “direct agonism of GPR84” value [1] of the same compound?
Its value is “direct agonism”.

What about the “allosteric effect on concentration-response curves of orthosteric agonists incl. compound-1” value [1] of the same compound?
The value was “as large positive allosteric effects on the potency of the orthosteric agonist ligands as did DIM”.

O=c1nc(OCC2COCCO2)cc2n1CCc1cc(C#CCNc3ccccc3)ccc1-2 (stereo not shown) [Compound 107, 2-([1,4]dioxan-2-ylmethoxy)-9-(3-phenylamino-prop-1-ynyl)-6,7-dihydro-pyrimido[6,1-a]isoquinolin-4-one] was tested. Which “potency to block DIM-stimulated [35S]GTPγS binding, Arg172Ala versus GPR84-Cys352Ile Gαi2 fusion” value [2] did it give?
Its value is “equal potency”.

What about the “ability to limit [35S]GTPγS binding induced by EC80 concentrations of C10 (50 μM), embelin (3 μM) and DIM (5 μM)” value [6] of the same compound?
Its value is “more potent than 161”.

And the “mode of blockade of DIM agonism” value ([6]; higher antagonist concentrations reduced maximal effect of DIM)?
The value was “non-competitive mode of blockade”.

And the “mode of blockade of embelin effects” value ([6]; increasing concentrations of antagonist decreased maximal effect of embelin)?
The value was “non-competitive manner”.

Which “agonist response at Arg172Ala mutant” value [2] does the source give for CCCCCCSc1nc(O)cc(O)n1 [compound-1, 2-(hexylthiol)pyridimine-4,6 diol] here?
The value was “no response”.

And the “measured potency compared between GPR84-Gαi2 and GPR84-Cys352Ile Gαi2 fusion constructs” value [3]?
The value was “indistinguishable”.

What about the logα [3, 8] of the same compound?
Its logα is 1.75 ± 0.05.

And the logβ [3, 8]?
The logβ was -0.1 ± 0.02.

What about the logβ ([3]; agonist compound-1, modulator DIM) of the same compound?
The logβ was -0.2 ± 0.05.

And the logα ([3]; agonist compound-1, modulator DIM, operational model of allosterism)?
Its logα is 2.1 ± 0.07.

And the “effect of Arg174Ala mutation on agonist function or potency” value [4]?
The value was “did not affect function or potency”.

And the “agonist response at Arg172Lys mutant” value [5]?
The value was “eliminated response”.

How did the “affinity for GPR84 (words, inferred from functional data)” value [1] turn out when COc1ccc2[nH]cc(C(c3cc(F)cc(F)c3)c3c[nH]c4ccc(OC)cc34)c2c1 [3c] was run?
The value was “lack affinity”.

And the “direct agonism of GPR84” value [1]?
The value was “inactive”.

What about the “allosteric effect on concentration-response curves of orthosteric agonists incl. compound-1” value [1] of the same compound?
Its value is “unable to effect the position of the concentration-response curves”.

Which “agonist activity, [35S]GTPγS binding” value ([6]; membranes of doxycycline-induced cells) does the source give for CCCCCCCCCC(=O)OC [methyl decanoate] here?
The value was “completely inactive”.

Reference: PMC5738391, “Three classes of ligands each bind to distinct sites on the orphan G protein-coupled receptor GPR84” (Scientific Reports, 2017)
